# Test results: US11202833B2, “Methylglyoxal-scavenging cyclic peptides and their use for the prevention and treatment of diseases associated with elevated methylglyoxal levels” (RUPRECHT-KARLS-UNIVERSITÄT HEIDELBERG, priority 2016, dated 2021)
# Numbered stars: 1 amine (or outer) side, 2 acyl side, 3 side chain; on linkers, the order of the positions; unused ones are H or OH. Bridge positions count the residues as written; N and C are the ends. Side chains are listed from the residue outwards. Peptide text beside a SMILES is read from it. * marks the point of attachment. ξ: configuration not given here. DOTA = O=C(O)CN1CCN(CC(=O)O)CCN(CC(=O)*)CCN(CC(=O)O)CC1; C16 diacid = O=C(O)CCCCCCCCCCCCCCC(=O)*; ξγGlu = O=C(O)C(CCC(=O)[*:2])N[*:1]; Myristoyl = CCCCCCCCCCCCCC(=O)*
# How the values were obtained:
# [1] = design: species or system NMRI mice; conditions: mouse, in vivo
# Protocol: DOTA coupled peptides were labeled with ^68Ga as described previously (Wischnjow et al., 2016). In short ^68Ga was eluted from the generator into a tube containing 20 nmol of the peptide and 0.5% ascorbic acid in 0.5 M Na-acetate buffer. The mixture was incubated at pH 3.5-4.0 for 10′ at 95° C. while stirring to allow for the ^68Ga-DOTA complex to form. Free ^68Ga was removed using C18 solid phase extraction cartridges (Thermo Scientific, USA) and the product was checked by HPLC (Agilent Technologies, USA) equipped with a radio flow detector. The labeled peptide was injected i.v. into NMRI mice. PET analysis was carried out for 0-1 h and for another 20′ after 2 h while cumulative pictures are shown for 0-20 min, 40-60 min and 120-140 min.
# Data was normalized for animal weight and injected dose and pictures and data are given as standardized uptake value [SUV]. For quantitative comparison the area under the curve for the SUV values of the different regions was determined and compared by Student's t-test.
# [2] = test system: human serum albumin (HSA); experiment: Competitive inhibition of HSA MG-H1 formation; format: biochemical; conditions: for prevention of HSA-MG-H1 formation: FIG. 2B, HSA with MG and scavenger
# Protocol: In short, pure MG-1,1-dimethylacetal was heated in sulphuric acid solution for 1 h and fractionally distilled in a column containing glass helices under reduced pressure. Fractions were analyzed by ^1H and ^13C NMR. […] Two parts urea (8M urea, 0.5 M TrisHCl; pH8.0) were added to the solution and the sample was vortexed. HSA was precipitated by addition of two parts acetonitrile (respective to the final sample/urea mixture) and collected by centrifugation for 10′ at 13000 g. […] The HSA containing pellet was dissolved in 20 mM HCl and the protein content was determined by BCA assay. […] The amount of HSA-MG-H1 adduct was determined by LC-MS. Samples and standard curve were spiked with d3-MG-H1 (Polypeptide Group, San Diego, Calif., USA) and derivatized with Fmoc-Cl. Separation was performed on a C18 column (Hypersil Gold aQ; Thermo Scientific, USA) using a 20 min gradient of 0-100% acetonitrile (0.1% TFA) with the first five minutes diverted to waste. Analysis was carried out on an Exactive Orbitrap MS system (Thermo Scientific, USA). […] The calibration range used for the assay was 0-30 pmol.
# [3] = MG scavenging in vitro (MG half-life by HPLC)
# Protocol: (§1) Scavengers (400 μM) were incubated with MG (200 μM) in 0.1 M phosphate buffer, pH 7.4 at 37° C. The kinetics of the scavenging reaction was followed for 48 h. Samples were frozen in liquid nitrogen and stored at −80° C. until analysis. MG content was quantified by HPLC as described below.
# (§2) In short samples were precipitated with 20% TCA at a ratio of 2/1 and vortex mixed. Internal standards ^13C MG (LC-MS/MS analysis) or 2,3-dimethylquinoxaline (HPLC analysis) and water was added and the sample mixed again. Samples were centrifuged at 13,000 g at 4° C. for 5 min and the supernatant derivatized with 1,2-diaminobenzene in the presence of sodium azide for 4 h at RT. For HPLC based MG analysis the linear gradient was 0-6% acetonitrile in 15 min. The MG-1,2-diaminobenzene adduct 2-methylquinoxaline and the internal standard 2,3-dimethylquinoxaline were detected with a UV monitor at 320 nm and eluted at 12.7 min and 14.2 min, respectively. For LC-MS/MS, samples were analyzed using an ACQUITY UPLC I equipped with a Xevo TQ-S mass spectrometer (Waters, USA). Samples were separated on BEH C18 analytical column (2.1×50 mm, 1.7 μm) fitted with pre-column (2.1×5 mm, 1.7 μm). Solvent A was water+0.1% formic and solvent B was 50% acetonitrile+0.1% formic acid and a linear gradient from 0-100% solvent B, over ten minutes was used with a flow rate of 0.2 ml/min. Injection volume was 1 μl and the column temperature was 20° C. The quinoxaline analytes were detected by electrospray positive ionization-mass spectrometric multiple-reaction monitoring (MRM). The source temperature was 150° C. and the desolvation gas temperature was 350° C. The cone gas and desolvation gas flow rates were 150 and 800 l/hr, respectively. The capillary voltage was 0.5 kV and the cone voltage was 20V. Mass transitions (parent ion >fragment ion; collision energy) and retention time were as follows: MG 145.01>77.10; 24 eV, 5.93 mins; [^13C3]-MG 148.07>77.16; 24 eV, 5.92 mins. The standard curve was in the range of 0-20 pmol and 0-1 nmol for LC MS/MS analysis and HPLC analysis, respectively.
# [4] = Serum stability of 177Lu-labelled peptides; format: in vitro ADME; conditions: human serum, 37° C., after 24 h, 177Lu label
# Protocol: The cyclic peptide CycK(DOTA)K(Myr)R4E and the linear peptide K(DOTA)K(Myr)R4E were labeled with ^177Lu. In short 20 nmol of peptides were incubated with ^177Lu in 0.4 M Na-acetate buffer (pH 5.0) for 10′ at 95° C. Free ^177Lu was removed by C18 solid phase extraction cartridges, the products eluted with EtOH and checked by radio-HPLC. The radiolabelled peptides were reconstituted in human serum (H4522; Sigma-Aldrich) and incubated in serum at 37° C. for the times indicated. Serum was precipitated by addition of two parts acetonitrile centrifuged for 10 min at 13000 g and the supernatant analysed by HPLC (Agilent Technologies, USA) fitted with a radio flow detector using a 10 min gradient of 0-60% acetonitrile in water (0.1% TFA).
# washed human whole blood [5] = experiment: Hemolysis; conditions: 37° C., 30 min
# Protocol: (§3) Human whole blood was collected into EDTA tubes and centrifuged at 500 g at RT for 5 min. The plasma and buffy coat was removed and saline solution was added to the haematocrit containing pellet to the previous plasma level to wash the erythrocytes. The tube was gently inverted several times and centrifuged again at 500 g. This procedure was repeated until the supernatant remained clear (approx. 4 times). After the last centrifugation step the hematocrit was re-suspended in PBS to reach the original blood volume. […] Haemolysis was compared to saline solution (negative control; 0% haemolysis) and 1% Triton X100 solution (positive control; 100% haemolysis).
# [6] = test system: murine cardiac endothelial cells; format: cell-based; conditions: mouse, 48 h, 1 mM
# Protocol: Murine cardiac endothelial cells were seeded on gelatine pre-coated 96 well plates at a density of 5000 cells per well in DMEM (1 g/1 glucose, 5% FCS, 1% Pen/Strep, 1% AmpB, 1% HEPES). On the following day cells were switched to medium containing only 0.1% FCS. […] MTT ((3-(4,5-Dimethylthiazol-2-yl)-2,5-Diphenyltetrazolium Bromide)) solution (50 μl of 2 mg/ml in PBS) was added to the wells and the plate was incubated at 37° C. for 3-4 h. Medium was removed and 200 μl of DMSO was added to lyse cells and solubilise the purple formazan crystals. The plate was incubated for 1 h at room temperature on a shaker and absorbance was measured at 590 nm. Intensity for untreated cells was set to 100%.
# [7] = 400 µM, pH 7.4
# Protocol: as §1, §2
# washed human whole blood [8] = test system: washed human whole blood
# Protocol: as §3
# in vivo = conditions: C57/B16, mouse, ip
# Protocol: Blood was collected by cardiac puncture in an aesthetised mice at time points 10′, 30′, 1 h, 4 h, 8 h and 24 h into tubes containing EDTA. Plasma was collected after centrifugation at 3000 g for 5′ at room temperature and frozen in liquid nitrogen.
# Plasma was acidified with 5% TFA (5 μl/30 μl), acetonitrile (60 μl) was added and the tubes vortexed. Another 120 μl of acetonitrile were added and samples were ultrasonicated for 5 min. Samples were spun for 20 min at 13000 g. The supernatant (180 μl) was collected, mixed with 180 μl of water and freeze dried. The sample was resuspended in 30 μl of a mixture of acetonitrile/water (ratio of 1/1) containing 0.1% TFA. The samples was analysed by LC MS. Concentration was calculated by normalisation for the internal standard in combination with linear regression of a standard curve. Concentration/time-points were fitted using a one phase exponential decay model to determine the half-life of the drug.
# [9] = Kinsky et al., 2016; cited from earlier work
structure (smiles),measurement,setting,value
"N=C(N)NCCC[C@@H]1NC(=O)[C@H](CCCNC(=N)N)NC(=O)[C@H](CCCNC(=N)N)NC(=O)[C@H](CCCNC(=N)N)NC(=O)[C@H](CCCCNC(=O)CN2CCN(CC(=O)O)CCN(CC(=O)O)CCN(CC(=O)O)CC2)NC(=O)CC[C@@H](C(=O)O)NC1=O (68Ga complex, metal not drawn) [CycK(DOTA)R4E] (K(DOTA)RRRRE-OH; lactam N-6)",completely excreted after,[1],≤ 140 min
same,excreted almost completely within/after,[1]; iv,≤ 20 min
"N=C(N)NN [Agd, aminoguanidine]",prevention of HSA-MG-H1 formation,[2],tended to be more efficient
"NCCC(=O)N[C@@H](Cc1cnc[nH]1)C(=O)O [Car, carnosine]",prevention of HSA-MG-H1 formation,[2],nor did it prevent
same,MG scavenging (in words),[3],neither scavenged MG
"CN(CC(=O)O)C(=N)N [Cre, creatine]",MG scavenging (in words),[3],fastest of the endogenous MG scavengers tested
CCCCCCCCCCCCCC(=O)NCCCC[C@@H]1NC(=O)[C@H](CCCCNC(=O)CN2CCN(CC(=O)O)CCN(CC(=O)O)CCN(CC(=O)O)CC2)NC(=O)CC[C@@H](C(=O)O)NC(=O)[C@H](CCCNC(=N)N)NC(=O)[C@H](CCCNC(=N)N)NC(=O)[C@H](CCCNC(=N)N)NC(=O)[C@H](CCCNC(=N)N)NC1=O [CycK(DOTA)K(Myr)R4E] (K(DOTA)K(Myristoyl)RRRRE-OH; lactam N-7),SUV in the bladder,[1],lower
same,SUV in the kidney,[1],similar
same,"SUV values in the heart, muscle and liver",[1],higher
same,accumulation in the kidneys,[1],strong accumulation in the kidneys
same,circulates for,[1],over 140 min
same,peptide remaining,[4],86.16%
CCCCCCCCCCCCCC(=O)NCCCC[C@@H]1NC(=O)CC[C@@H](C(=O)O)NC(=O)[C@H](CCCNC(=N)N)NC(=O)[C@H](CCCNC(=N)N)NC(=O)[C@H](CCCNC(=N)N)NC(=O)[C@H](CCCNC(=N)N)NC1=O [CycK(Myr)R4E] (K(Myristoyl)RRRRE-OH; lactam N-6),concentration above which significant hemolysis is displayed,washed human whole blood [5],over 50 μM
N=C(N)NCCC[C@@H]1NC(=O)[C@H](CCCNC(=N)N)NC(=O)[C@H](CCCNC(=N)N)NC(=O)[C@H](CCCNC(=N)N)NC(=O)[C@H](CCCCNC(=O)CCC(NC(=O)CCCCCCCCCCCCCCC(=O)O)C(=O)O)NC(=O)CC[C@@H](C(=O)O)NC1=O (stereo partly shown) [CycK(e-Hdd)R4E] (K([ξγGlu-C16 diacid])RRRRE-OH; lactam N-6),prevention of modification of HSA with MG-H1,"[2]; FIG. 9, peptides 400 μM, HSA 400 μM, MG 200 μM",significantly prevented
same,viability relative to untreated cells,[6],75%
same,MG t1/2,[7],1.1 h
same,hemolysis (in words),washed human whole blood [8],does not cause hemolysis even at high concentrations
same,half-life,in vivo,~8 h
CCCCCCCCCCCCCC(=O)NCCCC[C@H](NC(=O)[C@@H](N)CCCCNC(=O)CN1CCN(CC(=O)O)CCN(CC(=O)O)CCN(CC(=O)O)CC1)C(=O)N[C@@H](CCCNC(=N)N)C(=O)N[C@@H](CCCNC(=N)N)C(=O)N[C@@H](CCCNC(=N)N)C(=O)N[C@@H](CCCNC(=N)N)C(=O)N[C@@H](CCC(=O)O)C(=O)O [K(DOTA)K(Myr)R4E] (H-K(DOTA)K(Myristoyl)RRRRE-OH; N-terminus assumed),peptide remaining,[4],33.4%
"CN(C)C(=N)N=C(N)N [Met, metformin]",prevention of HSA-MG-H1 formation,[2],did not significantly prevent
same,MG-metformin adduct concentration in the urine,[9],up to 4 μM
"Cc1ncc(CO)c(CN)c1O [Pyr, pyridoxamine]",prevention of HSA-MG-H1 formation,[2],did not significantly prevent
